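These data come from cells grown in 96-well plates and exposed to compound for 48 hours at five concentrations. GI50: concentration for 50% inhibition of growth. TGI: concentration producing complete growth inhibition.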

Among the test systems are COLO 205 colon; HT29 colon; OVCAR-4 ovarian; RPMI-8226 leukemia; SF-295 CNS; SW-620 colon; U251 CNS; UACC-257 melanoma; UACC-62 melanoma; NCI-H522 lung.
Common to all, as to assay: inhibition of tumour cell growth, NCI panel, 48 h

As to `O=C(O)C1=C(C(=O)Nc2ccc(NC(=O)C3=C(C(=O)O)C4C=CC3C4)cc2)C2C=CC1C2`, the TGI in the assay on COLO 205 colon, in the assay on HT29 colon, with OVCAR-4 ovarian, in the assay on RPMI-8226 leukemia, in the assay with SF-295 CNS and with SW-620 colon was greater than 100 µM each time. Moreover, the TGI in the assay with U251 CNS, in the assay on UACC-257 melanoma and with UACC-62 melanoma was greater than 100 µM in each case.

For `O=[N+]([O-])c1cccc(C2=NOC3C4CCC(C4)C23)c1` (stereo unspecified), the TGI with COLO 205 colon, in the assay with HT29 colon, in the assay on NCI-H522 lung, with OVCAR-4 ovarian, in the assay on RPMI-8226 leukemia and in the assay with SF-295 CNS was greater than 100 µM throughout. Moreover, the TGI with SW-620 colon, in the assay on U251 CNS and with UACC-257 melanoma was greater than 100 µM throughout.

Take `O=C1CC(c2ccc(Cl)cc2)Oc2ccccc21` (stereo unspecified): the TGI is 89.1 µM in the assay on COLO 205 colon; 21.2 µM in the assay on HT29 colon; greater than 100 µM with OVCAR-4 ovarian; 9.12 µM in the assay with RPMI-8226 leukemia; greater than 100 µM in the assay with SF-295 CNS; greater than 100 µM in the assay with SW-620 colon. In addition, the TGI in the assay on U251 CNS is greater than 100 µM; in the assay on UACC-257 melanoma, greater than 100 µM; with UACC-62 melanoma, 49.8 µM.

`Cc1ccccc1-n1c(C)nc(-c2ccccc2)cc1=O`: the TGI in the assay on COLO 205 colon, in the assay on HT29 colon, in the assay with NCI-H522 lung, with OVCAR-4 ovarian, with SF-295 CNS and in the assay on SW-620 colon was greater than 100 µM in each case. The TGI in the assay with U251 CNS, with UACC-257 melanoma and in the assay with UACC-62 melanoma was greater than 100 µM throughout.

As for `O=C(O)c1ccccc1NC(=O)C1CCCCC1`, the TGI in the assay on COLO 205 colon, with HT29 colon, in the assay with OVCAR-4 ovarian, in the assay on RPMI-8226 leukemia, with SF-295 CNS and in the assay with SW-620 colon was greater than 100 µM in each case. In addition, the TGI in the assay with U251 CNS, with UACC-257 melanoma and in the assay on UACC-62 melanoma was greater than 100 µM in each case.

For `COC(=O)C1=CC2OC1(C)CCC2=O` (stereo unspecified), the TGI in the assay on COLO 205 colon, in the assay with HT29 colon, with NCI-H522 lung, in the assay with OVCAR-4 ovarian, in the assay on RPMI-8226 leukemia and in the assay with SF-295 CNS was greater than 100 µM throughout. Also, the TGI with SW-620 colon, in the assay on U251 CNS and in the assay with UACC-257 melanoma was greater than 100 µM each time.

Consider `Cc1cccc2nc3cccc(C(=O)NCCN(C)C)c3nc12`, for which the TGI came out at 3.14 µM in the assay with COLO 205 colon; 5.44 µM in the assay with HT29 colon; 4.84 µM with OVCAR-4 ovarian; 14.3 µM in the assay on SF-295 CNS; 11.2 µM in the assay with SW-620 colon; 4.61 µM in the assay with U251 CNS. Moreover, the TGI is 2.61 µM with UACC-257 melanoma and 2.42 µM in the assay on UACC-62 melanoma.

Turning to `ClCc1ccc(Cn2cnc3c(Cl)nc(Cl)nc32)cc1`, the GI50 in the assay on COLO 205 colon was 3.45 µM; in the assay with HT29 colon it was 2.9 µM; with NCI-H522 lung, 22.4 µM; with OVCAR-4 ovarian, 4.91 µM; in the assay on SF-295 CNS it was 7.2 µM; in the assay on SW-620 colon, 3.79 µM. The GI50 in the assay on U251 CNS is 2.05 µM; with UACC-257 melanoma it was 16.3 µM; in the assay on UACC-62 melanoma, 2.06 µM. Moreover, the TGI was greater than 100 µM in the assay with COLO 205 colon; greater than 100 µM with HT29 colon; 46.8 µM with NCI-H522 lung; 18.8 µM with OVCAR-4 ovarian; 19.5 µM in the assay with SF-295 CNS; 17.3 µM in the assay with SW-620 colon. In addition, the values for the TGI in the assay on U251 CNS, in the assay on UACC-257 melanoma and in the assay on UACC-62 melanoma were 3.88 µM, 33.5 µM and 4.4 µM, respectively.

Consider `CC(C)c1cc(OCC(O)CO)cc(C(C)C)c1` (stereo unspecified), for which the TGI in the assay on COLO 205 colon, in the assay on HT29 colon, in the assay with NCI-H522 lung, in the assay on OVCAR-4 ovarian, in the assay on SF-295 CNS and in the assay on SW-620 colon was greater than 100 µM each time. Also, the TGI with U251 CNS, in the assay with UACC-257 melanoma and in the assay on UACC-62 melanoma was greater than 100 µM throughout.

As to `CN1C(Cl)=NS(=O)(=O)c2ccccc21`, the TGI in the assay with COLO 205 colon, with HT29 colon, with NCI-H522 lung, in the assay with OVCAR-4 ovarian, in the assay with SF-295 CNS and with SW-620 colon was greater than 100 µM throughout. The TGI in the assay with U251 CNS, with UACC-257 melanoma and with UACC-62 melanoma was greater than 100 µM throughout.

In the case of `O=C1C=CC(CC(=O)c2ccc3ccccc3c2)O1` (stereo unspecified), the TGI in the assay with COLO 205 colon was 31.9 µM; in the assay with HT29 colon it was 33.1 µM; in the assay with OVCAR-4 ovarian, 63.7 µM; in the assay with SF-295 CNS it was greater than 100 µM; in the assay on SW-620 colon it was 49.5 µM; with U251 CNS it was 32.1 µM. The TGI in the assay on UACC-257 melanoma is greater than 100 µM; in the assay on UACC-62 melanoma it was 34.6 µM.

Regarding `O=C(/C=C1/Nc2ccc([N+](=O)[O-])cc2NC1O)c1cccc([N+](=O)[O-])c1` (stereo unspecified), the TGI was greater than 100 µM in the assay with COLO 205 colon; greater than 100 µM in the assay with HT29 colon; greater than 100 µM in the assay with NCI-H522 lung; 11.1 µM in the assay with OVCAR-4 ovarian; 38.3 µM in the assay on SF-295 CNS; greater than 100 µM in the assay on SW-620 colon. Besides, the TGI in the assay with U251 CNS, in the assay on UACC-257 melanoma and with UACC-62 melanoma was greater than 100 µM in each case.

Take `CC1=C(/C=C/C(C)=C/C=C/C(C)=C/CO)C(C)(C)CCC1`: the TGI with COLO 205 colon is 38.3 µM; in the assay with HT29 colon, greater than 100 µM; in the assay with NCI-H522 lung it was 54.7 µM; with OVCAR-4 ovarian it was greater than 100 µM; with SF-295 CNS, 58.3 µM; in the assay with SW-620 colon, 38.8 µM. For the same molecule, the TGI in the assay with U251 CNS was determined as 39 µM; in the assay on UACC-257 melanoma, 84.4 µM; with UACC-62 melanoma, 45.9 µM.

For `Cc1cc2c(C)n(Cc3ccc(Cl)cc3Cl)nc2c(C(=O)O)c1C`, the TGI in the assay with COLO 205 colon, in the assay on HT29 colon, in the assay on RPMI-8226 leukemia, with SF-295 CNS, in the assay on SW-620 colon and in the assay on U251 CNS was greater than 100 µM in each case. Besides, the TGI in the assay on UACC-257 melanoma and in the assay on UACC-62 melanoma was greater than 100 µM in each case.

For the molecule `CC12Oc3ccc4ccccc4c3CC1Cc1c(ccc3ccccc13)O2` (stereo unspecified), the TGI in the assay on COLO 205 colon was greater than 100 µM; in the assay with HT29 colon, greater than 100 µM; in the assay on NCI-H522 lung it was greater than 100 µM; in the assay with OVCAR-4 ovarian, 90.6 µM; in the assay with SF-295 CNS it was greater than 100 µM; in the assay with SW-620 colon, greater than 100 µM. In addition, the TGI in the assay on U251 CNS and in the assay on UACC-257 melanoma was greater than 100 µM in each case.

Turning to `COC(=O)C1=C(c2ccc3c(c2)OCO3)OC(c2cc(OC)c(OC)c(OC)c2)C1` (stereo unspecified), the TGI in the assay on COLO 205 colon was 3.98 µM; in the assay with HT29 colon it was 4.63 µM; with OVCAR-4 ovarian, greater than 100 µM; with RPMI-8226 leukemia, greater than 100 µM; in the assay on SF-295 CNS, greater than 100 µM; with SW-620 colon it was greater than 100 µM. Besides, the TGI in the assay with U251 CNS is greater than 100 µM; in the assay with UACC-257 melanoma it was greater than 100 µM; in the assay with UACC-62 melanoma, 19.2 µM.

Consider `CC1=CC(=O)N(c2c(C)cccc2Cl)C(C)N1` (stereo unspecified), for which the TGI in the assay with COLO 205 colon, in the assay with HT29 colon, in the assay with NCI-H522 lung, in the assay on OVCAR-4 ovarian, with SF-295 CNS and with SW-620 colon was greater than 100 µM throughout. In addition, the TGI in the assay with U251 CNS, in the assay on UACC-257 melanoma and with UACC-62 melanoma was greater than 100 µM throughout.

With `CC(C)CCN[C@@H]1CCc2cc(O)c(N3CC(=O)NS3(=O)=O)c(F)c2C1`, the GI50 with COLO 205 colon, with HT29 colon, with NCI-H522 lung, in the assay with OVCAR-4 ovarian, in the assay on RPMI-8226 leukemia and in the assay with SF-295 CNS was greater than 100 µM each time. In addition, the GI50 with SW-620 colon, in the assay on U251 CNS and in the assay on UACC-257 melanoma was greater than 100 µM in each case. The TGI in the assay on COLO 205 colon, in the assay on HT29 colon, in the assay with NCI-H522 lung, in the assay with OVCAR-4 ovarian, in the assay with RPMI-8226 leukemia and in the assay with SF-295 CNS was greater than 100 µM throughout. Also, the TGI in the assay on SW-620 colon, in the assay on U251 CNS and in the assay with UACC-257 melanoma was greater than 100 µM in each case.

With `O=C(O)CCSC(=O)Nc1ccc(N=Nc2ccccc2)cc1`, the TGI in the assay with COLO 205 colon, in the assay with HT29 colon, with OVCAR-4 ovarian, in the assay with RPMI-8226 leukemia, in the assay on SF-295 CNS and with SW-620 colon was greater than 100 µM in each case. The TGI in the assay on U251 CNS, in the assay with UACC-257 melanoma and with UACC-62 melanoma was greater than 100 µM throughout.

As for `CN1CC(=O)N(C)c2nc[nH]c2C1=O`, the TGI in the assay with COLO 205 colon, in the assay with HT29 colon, in the assay with OVCAR-4 ovarian, in the assay on RPMI-8226 leukemia, with SF-295 CNS and in the assay on SW-620 colon was greater than 100 µM each time. Also, the TGI in the assay with U251 CNS and with UACC-62 melanoma was greater than 100 µM throughout.

Turning to `Cc1ncc([N+](=O)[O-])n1CCNC(=O)Cn1c([N+](=O)[O-])cnc1C`, the TGI in the assay with COLO 205 colon, in the assay with HT29 colon, in the assay on NCI-H522 lung, in the assay with SF-295 CNS, in the assay on SW-620 colon and with U251 CNS was greater than 100 µM throughout. Also, the TGI in the assay on UACC-257 melanoma and with UACC-62 melanoma was greater than 100 µM throughout.

(Values after PubChem BioAssay (NCI).)
